Results taken from patent publication US7884136B2, “Modified-release formulations of a bupropion salt” (Biovail Laboratories International S.R.L., priority 2005, dated 2011).
Like-named read-outs stand apart in the source and are kept apart here.

How the values were obtained:
[1] = Recrystallization screen for bupropion hydrobromide polymorphic forms (PXRD); type: physicochemical; conditions: recrystallized product; solvent/cosolvent differ per trial, trial no. in label
Method: It is well known that organic molecules can crystallize into solid forms. Moreover the same organic compound may assume different crystalline arrangements in solid form, depending on the conditions under which the crystal product is formed. This phenomenon is commonly known as polymorphism. A study was undertaken to explore the polymorphic forms of bupropion hydrobromide. The crystal forms of the products obtained in this study were determined by powder X-ray diffraction (PXRD). A RIGAKU miniflex instrument (Radiation Cu K∝, generator 30 KV, filter Ni) was used to obtain the PXRD data.
Polymorphic form II was obtained by recrystallization of form 1 from solvents or mixtures of solvents such as acetone-water, methanol, dichloromethane, toluene-methanol and dimethylcarbonate-methanol. Polymorphic form III was obtained by recrystallization of polymorphic form I in methanol. Table 80 provides a list of recrystallization conditions and the polymorphic form obtained under each set of conditions.

[2] = Moisture content of bupropion salts by KF; type: physicochemical; conditions: original API salts
Method: (§1) The eight salts were first evaluated by HPLC, KF, pH and DSC for purity, water content, aqueous pH and possible polymorphs.
(§2) The salts were analysed by DSC (at 10° C./min from 30° C. up to 400° C.) and the pH (aq. 0.5%), and the moisture content by KF were also measured. The TGA was performed on the HCl, maleate, tosylate and HBr salts.

[3] = pH of 0.5% aqueous solution of bupropion salts; type: physicochemical; conditions: 0.5% aqueous solution, original API salts
Method: as §1, §2

[4] = cited from earlier work
[5] = Forced degradation stability study of bupropion salts spiked with placebo/excipients, closed vials, 40° C./75% RH, HPLC assay and impurities; conditions: for Content of impurity 3-CBZ, order of salts / Content of impurity 852U77, order of salts / Total imp., order of salts: 32 days; for Stability in the forced degradation stability studies, overall: DS and spiked DS
Method: The stability of the salts was evaluated based on the formation of the main degradation products (see below) as determined by HPLC analysis and the % potency (or assay) of the API, after specific time periods in the stability chamber. The effect of the addition of solvents, such as water, ethanol and isopropyl alcohol, was also studied.
The samples of each salt and the spiked salts with the bupropion HCl XL were prepared under the conditions mentioned in Table 4. […] The stability of the bupropion salts were evaluated based on the formation of the main degradation product 3-chlorobenzoic acid (3-CBZ) and the intermediate degradation products diketone 827U76 and the ketohydroxyl derivatives (20U78 and 852U77) (Scheme 2).
As mentioned above, the stability samples were prepared in 2 mL vials and used directly for assay and impurity analysis by HPLC without further sample preparations to minimize errors.

[6] = Propylene Glycol Fatty Acid Esters
[7] = Ionic Surfactants, as reported by the manufacturer
[8] = Sorbitan Fatty Acid Ester Surfactants, as reported by the manufacturer
[9] = Mono- and Diglyceride Surfactants
[10] = PEG-Fatty Acid Monoester Surfactants
[11] = PEG-Fatty Acid Diester Surfactants
[12] = Sterol and Sterol Derivative Surfactants
[13] = Sugar Ester Surfactants, as reported by the manufacturer

Br.CC(NC(C)(C)C)C(=O)c1cccc(Cl)c1 (stereo not shown) [Bupropion Hydrobromide 097]
K.F. (%) [1]: 0.06%

Br.CC(NC(C)(C)C)C(=O)c1cccc(Cl)c1 (stereo not shown) [Bupropion Hydrobromide 098A]
K.F. (%) [1]: 0.13%

Br.CC(NC(C)(C)C)C(=O)c1cccc(Cl)c1 (stereo not shown) [Bupropion Hydrobromide 098B]
K.F. (%) [1]: 0.16%

CC(NC(C)(C)C)C(=O)c1cccc(Cl)c1.O=C(O)C(O)C(O)C(=O)O (stereo not shown) [Bupropion tartrate acid]
KF (moisture content), Original (Initial APIs) [2]: 0.18% | pH (aq. 0.5%), Original (Initial APIs) [3]: 3.62

CC(NC(C)(C)C)C(=O)c1cccc(Cl)c1.CC(NC(C)(C)C)C(=O)c1cccc(Cl)c1.O=C(O)C(O)C(O)C(=O)O (stereo not shown) [Bupropion tartrate neutral]
KF (moisture content), Original (Initial APIs) [2]: 0.14% | pH (aq. 0.5%), Original (Initial APIs) [3]: 3.62

CCCCCCCCCCCC(=O)OCC(C)OC(=O)CCCCCCCCCCC (stereo not shown) [Propylene glycol dilaurate]
HLB [4, 6]: >6

CCCCCCCCCCCCCCCCCC(=O)OCC(C)OC(=O)CCCCCCCCCCCCCCCCC (stereo not shown) [Propylene glycol distearate]
HLB [4, 6]: >6

CCCCCCCCCCCCOS(=O)(=O)[O-].[Na+] [Sodium lauryl sulfate (dodecyl)]
HLB [4, 7]: 40

CCCCCCCC/C=C\CCCCCCCC(=O)[O-].[Na+] [Sodium oleate]
HLB [4, 7]: 18

CCCCCCCCCCCCCCCC(=O)OC[C@@H](O)[C@H]1OC[C@H](O)[C@H]1O [Sorbitan monopalmitate]
HLB [4, 8]: 6.7

Bupropion Fumarate
KF (moisture content), Original (Initial APIs) [2]: 0.09% | pH (aq. 0.5%), Original (Initial APIs) [3]: 3.84 | Content of impurity 3-CBZ, order of salts ([5]; In IPA/EtOH, closed vials): maleate > HBr > HCl > Fumarate | Content of impurity 852U77, order of salts ([5]; In IPA/EtOH, closed vials): fumarate > HBr ≈ HCl ≈ maleate ≈ tosylate | Total imp., order of salts ([5]; In IPA/EtOH, closed vials): fumarate > maleate > HBr > HCl > tosylate | Content of impurity 3-CBZ, order of salts ([5]; In water, closed vials): HCl > HBr ≈ maleate ≈ fumarate | Content of impurity 852U77, order of salts ([5]; In water, closed vials): fumarate > HBr > maleate > HCl | Total imp., order of salts ([5]; In water, closed vials): fumarate > HBr > HCl > tosylate > maleate

Bupropion succinate
KF (moisture content), Original (Initial APIs) [2]: 0.13% | pH (aq. 0.5%), Original (Initial APIs) [3]: 4.82

Distearin
HLB [4, 9]: <10

Glyceryl dioleate
HLB [4, 9]: 3-4

Glyceryl monostearate
HLB [4, 9]: 4.4

PEG 4-100 monolaurate
HLB [4, 10]: >9

PEG 4-100 monooleate
HLB [4, 10]: >8

PEG 4-100 monostearate
HLB [4, 10]: >6

PEG 100, 200, 300 monolaurate
HLB [4, 10]: >10

PEG 100, 200, 300 monooleate
HLB [4, 10]: >10

PEG 400 dioleate
HLB [4, 10]: >10

PEG 400 distearate
HLB [4, 10]: >10

PEG 400-1000 monostearate
HLB [4, 10]: >10

PEG-1 stearate
HLB [4, 10]: 2

PEG-2 oleate
HLB [4, 10]: 4.5

PEG-2 stearate
HLB [4, 10]: 4

PEG-4 dilaurate [listing 1 of 2 here]
HLB [4, 11]: 7

PEG-4 dilaurate [listing 2 of 2 here]
HLB [4, 11]: 6

PEG-4 dioleate
HLB [4, 11]: 6

PEG-4 distearate
HLB [4, 11]: 5

PEG-4 oleate
HLB [4, 10]: 8.3

PEG-4 stearate
HLB [4, 10]: 6.5

PEG-5 oleate
HLB [4, 10]: 9.5

PEG-5 stearate
HLB [4, 10]: 9.5

PEG-6 dilaurate
HLB [4, 11]: 9.8

PEG-6 dioleate
HLB [4, 11]: 7.2

PEG-6 distearate
HLB [4, 11]: 6.5

PEG-6 stearate
HLB [4, 10]: 9.7

PEG-7 oleate
HLB [4, 10]: 10.4

PEG-8 dioleate
HLB [4, 11]: 8.8

PEG-9 oleate
HLB [4, 10]: >10

PEG-9 stearate
HLB [4, 10]: >10

PEG-10 dipalmitate
HLB [4, 11]: >10

PEG-12 dilaurate
HLB [4, 11]: 11.7

PEG-12 dioleate
HLB [4, 11]: 10

PEG-12 distearate
HLB [4, 11]: 10.7

PEG-12 oleate
HLB [4, 10]: 14

PEG-12 ricinoleate
HLB [4, 10]: >10

PEG-12 stearate
HLB [4, 10]: 14

PEG-15 stearate
HLB [4, 10]: 14

PEG-20 glyceryl oleate
HLB ([4]; PEG Glycerol Fatty Acid Esters): >10

PEG-24 cholesterol ether
HLB [4, 12]: >10

PEG-30 cholestanol
HLB [4, 12]: >10

PEG-30 glyceryl oleate
HLB ([4]; PEG Glycerol Fatty Acid Esters): >10

PEG-30 stearate
HLB [4, 10]: >10

PEG-40 oleate
HLB [4, 10]: 17.4

PEG-40 stearate
HLB [4, 10]: >10

PEG-50 stearate
HLB [4, 10]: >10

PEG-100 oleate
HLB [4, 10]: 18.8

PEG-100 stearate
HLB [4, 10]: 19

PEG-200 oleate
HLB [4, 10]: >10

PEG-400 dioleate
HLB [4, 11]: >10

PEG-400 distearate
HLB [4, 11]: >10

PEG-400 oleate
HLB [4, 10]: >10

PEG-600 oleate
HLB [4, 10]: >10

Pentaerythrityl tetraisostearate
HLB ([4]; Transesterification Products of Oils and Alcohols): <10

Polyglyceryl-2 dioleate
HLB ([4]; Polyglycerized Fatty Acids): 7

Polyglyceryl-2 isostearate
HLB ([4]; Polyglycerized Fatty Acids): 5-7

Polyglyceryl-2 oleate
HLB ([4]; Polyglycerized Fatty Acids): 5-7

Polyglyceryl-2 stearate
HLB ([4]; Polyglycerized Fatty Acids): 5-7

Polyglyceryl-3 dioleate
HLB ([4]; Polyglycerized Fatty Acids): <10

Polyglyceryl-3 distearate
HLB ([4]; Polyglycerized Fatty Acids): <10

Polyglyceryl-3 oleate
HLB ([4]; Polyglycerized Fatty Acids): 6.5

Polyglyceryl-4 oleate
HLB ([4]; Polyglycerized Fatty Acids): 5-7

Polyglyceryl-4 pentaoleate
HLB ([4]; Polyglycerized Fatty Acids): <10

Polyglyceryl-4 stearate
HLB ([4]; Polyglycerized Fatty Acids): 5-6

Polyglyceryl-6 oleate
HLB ([4]; Polyglycerized Fatty Acids): 9

Polyglyceryl-6 pentaoleate
HLB ([4]; Polyglycerized Fatty Acids): <10

Polyglyceryl-10 decaisostearate
HLB ([4]; Polyglycerized Fatty Acids): <10

Polyglyceryl-10 decaoleate
HLB ([4]; Polyglycerized Fatty Acids): 3.5

Polyglyceryl-10 oleate
HLB ([4]; Polyglycerized Fatty Acids): 14

Polyglyceryl-10 pentaoleate
HLB ([4]; Polyglycerized Fatty Acids): 3.5

Polyglyceryl-10 septaoleate
HLB ([4]; Polyglycerized Fatty Acids): 3

Polyglyceryl-10 tetraoleate
HLB ([4]; Polyglycerized Fatty Acids): 6.2

Polyglyceryl-10 trioleate
HLB ([4]; Polyglycerized Fatty Acids): 7

Sorbitan monoisostearate
HLB [4, 8]: 4.7

Sorbitan monooleate
HLB [4, 8]: 4.3

Sorbitan monostearate
HLB [4, 8]: 4.7

Sorbitan sesquistearate
HLB [4, 8]: 4.2

Sorbitan trioleate
HLB [4, 8]: 4.3

Sucrose dipalmitate
HLB [4, 13]: 7.4

Sucrose distearate
HLB [4, 13]: 3

Sucrose monopalmitate
HLB [4, 13]: >10

oxalate
Stability in the forced degradation stability studies, overall ([5]; 40° C./75% RH): very poor

tartrate
Stability in the 10 days forced degradation study ([5]; 10 days, 40° C./75% RH, closed vials, with or without excipients): not stable | Stability in the forced degradation stability studies, overall ([5]; 40° C./75% RH): very poor
